From patent US12577245B2, “Sulfonyl benzamide derivatives as Bcl-2 inhibitors” (ASCENTAGE PHARMA (SUZHOU) CO., LTD., priority 2021, dated 2026) come the findings set out here.

Assay [1] has as its target Bcl-2 WT (Homo sapiens, UniProt P10415). Description: Bcl-2 WT inhibition, fluorescence polarization (Flu-BIM tracer) binding assay. The conditions noted are these: FP; 20 nM Bcl2, 5 nM Flu-BIM, 1 h incubation; read-out: Bcl-2 w.t. (FP).
Assay [2] deals with MV-4-11 cells. Description: CCK-8 cell viability assay in MV-4-11 cells. It is filed as cell-based. The note with it: Homo sapiens, MV4-11, 72 h, 10% FBS, 3 days. The procedure, abridged: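 IC50 values come from vehicle-normalized CCK-8 absorbance at 450 nm, read 1–4 h after reagent addition. Before that, MV-4-11 cells seeded at 20000 per well were cultured 3 days at 37 °C with a compound dilution series.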
(Formazan colour is commonly taken as a measure of viable cells.)

The test system of assay [3] is RS4; 11Bcl-2-G101V cells. Description: CellTiter-Glo (CTG) cell viability assay in RS4;11-Bcl-2-G101V cells. The class given is cell-based. The conditions noted are these: 72 h, 10% FBS, 3 days. Put shortly: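 Luminescent ATP read-out (CellTiter-Glo) after 3-day compound treatment at 37 °C gave viability relative to vehicle, from which IC50 was fitted. Mutant Bcl-2 RS4;11 cells were seeded at 10000 per well and rested 4 h before dosing.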
(In general: ATP-based viability assays read luminescence as a measure of living cells.)

Sequence of Bcl-2 WT (P10415 whole entry): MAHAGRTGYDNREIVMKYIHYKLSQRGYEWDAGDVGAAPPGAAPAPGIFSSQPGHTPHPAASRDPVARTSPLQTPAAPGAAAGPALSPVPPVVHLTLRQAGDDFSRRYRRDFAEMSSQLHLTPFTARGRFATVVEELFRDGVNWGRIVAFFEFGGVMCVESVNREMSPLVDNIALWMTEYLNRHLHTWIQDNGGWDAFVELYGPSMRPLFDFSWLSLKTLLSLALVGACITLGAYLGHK

Turning to `CC1(C)CCC(CN2CCN(c3ccc(C(=O)NS(=O)(=O)c4ccc(NC[C@H]5COCCO5)c([N+](=O)[O-])c4)c(Oc4cnc5[nH]ccc5c4)c3)CC2)=C(c2cc(CN3CCN4CCOC[C@H]4C3)cs2)C1` [Example 30, N-((4-((((S)-1,4-dioxan-2-yl)methyl)amino)-3-nitrophenyl)sulfonyl)-2-((1H-pyrrolo[2,3-b]pyridin-5-yl)oxy)-4-(4-((2-(4-(((R)-hexahydropyrazino[2,1-c][1,4]oxazin-8(1H)-yl)methyl)thiophen-2-yl)-4,4-dimethylcyclohex-1-en-1-yl)methyl)piperazin-1-yl)benzamide], the IC50 in assay [1] amounted to 23.6 nM; in assay [2], 564 nM; in assay [3], 1440 nM.

With `CC1(C)CCC(CN2CCN(c3ccc(C(=O)NS(=O)(=O)c4ccc(NC[C@H]5COCCO5)c([N+](=O)[O-])c4)c(Oc4cnc5[nH]ccc5c4)c3)CC2)=C(c2cc(CN3CCN(C4COC4)CC3)cs2)C1` [Example 31, (S)—N-((4-(((1,4-dioxan-2-yl)methyl)amino)-3-nitrophenyl)sulfonyl)-2-((1H-pyrrolo[2,3-b]pyridin-5-yl)oxy)-4-(4-((4,4-dimethyl-2-(4-((4-(oxetan-3-yl)piperazin-1-yl)methyl)thiophen-2-yl)cyclohex-1-en-1-yl)methyl)piperazin-1-yl)benzamide], the IC50 is 26 nM in assay [1], 147 nM in assay [2] and 880 nM in assay [3].

Regarding `CC1(C)CCC(CN2CCN(c3ccc(C(=O)NS(=O)(=O)c4ccc(NC[C@H]5COCCO5)c([N+](=O)[O-])c4)c(Oc4cnc5[nH]ccc5c4)c3)CC2)=C(c2cc(CN3CCC(F)(F)CC3)cs2)C1` [Example 32, (S)—N-((4-(((1,4-dioxan-2-yl)methyl)amino)-3-nitrophenyl)sulfonyl)-2-((1H-pyrrolo[2,3-b]pyridin-5-yl)oxy)-4-(4-((2-(4-((4,4-difluoropiperidin-1-yl)methyl)thiophen-2-yl)-4,4-dimethylcyclohex-1-en-1-yl)methyl)piperazin-1-yl)benzamide], the results for the IC50 in assay [1], in assay [2] and in assay [3] were 15.9 nM, 80 nM and 560 nM, respectively.

In the case of `CC1(C)CCC(CN2CCN(c3ccc(C(=O)NS(=O)(=O)c4ccc(NC[C@H]5COCCO5)c([N+](=O)[O-])c4)c(Oc4cnc5[nH]ccc5c4)c3)CC2)=C(c2cc(-c3ccc(F)cc3)cs2)C1` [Example 33, (S)—N-((4-(((1,4-dioxan-2-yl)methyl)amino)-3-nitrophenyl)sulfonyl)-2-((1H-pyrrolo[2,3-b]pyridin-5-yl)oxy)-4-(4-((2-(4-(4-fluorophenyl)thiophen-2-yl)-4,4-dimethylcyclohex-1-en-1-yl)methyl)piperazin-1-yl)benzamide], the IC50 in assay [1] was 23.9 nM; in assay [2], 6 nM; in assay [3] it was 630 nM.

With `CC1(C)CCC(CN2CCN(c3ccc(C(=O)NS(=O)(=O)c4ccc(NCC5CCOCC5)c([N+](=O)[O-])c4)c(Oc4cnc5[nH]ccc5c4)c3)CC2)=C(c2cc(-c3ccccc3)cs2)C1` [Example 34, 2-((1H-pyrrolo[2,3-b]pyridin-5-yl)oxy)-4-(4-((4,4-dimethyl-2-(4-phenylthiophen-2-yl)cyclohex-1-en-1-yl)methyl)piperazin-1-yl)-N-((3-nitro-4-(((tetrahydro-2H-pyran-4-yl)methyl)amino)phenyl)sulfonyl)benzamide], the IC50 in assay [1] is 41.1 nM; in assay [2] it was 18 nM; in assay [3], 1460 nM.

On to `CC1(C)CCC(CN2CCN(c3ccc(C(=O)NS(=O)(=O)c4ccc(NCC5CCOCC5)c([N+](=O)[O-])c4)c(Oc4cnc5[nH]ccc5c4)c3)CC2)=C(c2ccsc2-c2ccccc2)C1` [Example 35, 2-((1H-pyrrolo[2,3-b]pyridin-5-yl)oxy)-4-(4-((4,4-dimethyl-2-(2-phenylthiophen-3-yl)cyclohex-1-en-1-yl)methyl)piperazin-1-yl)-N-((3-nitro-4-(((tetrahydro-2H-pyran-4-yl)methyl)amino)phenyl)sulfonyl)benzamide], for which the IC50 in assay [1] was found to be 40.4 nM; in assay [2] it was 799 nM; in assay [3] it was 6160 nM.

Consider `CC1(C)CCC(CN2CCN(c3ccc(C(=O)NS(=O)(=O)c4ccc(NC[C@H]5CC[C@@](C)(O)CC5)c([N+](=O)[O-])c4)c(Oc4cnc5[nH]ccc5c4)c3)CC2)=C(c2cc(-c3ccc(F)cc3)cs2)C1` [Example 36, 2-((1H-pyrrolo[2,3-b]pyridin-5-yl)oxy)-4-(4-((2-(4-(4-fluorophenyl)thiophen-2-yl)-4,4-dimethylcyclohex-1-en-1-yl)methyl)piperazin-1-yl)-N-((4-((((1s,4s)-4-hydroxy-4-methylcyclohexyl)methyl)amino)-3-nitrophenyl)sulfonyl)benzamide], for which the IC50 in assay [1] came out at 36.3 nM; in assay [2], 36 nM; in assay [3], 570 nM.

For the molecule `CC1(C)CCC(CN2CCN(c3ccc(C(=O)NS(=O)(=O)c4ccc(NC[C@H]5CC[C@](C)(O)CC5)c([N+](=O)[O-])c4)c(Oc4cnc5[nH]ccc5c4)c3)CC2)=C(c2cc(-c3ccc(F)cc3)cs2)C1` [Example 37, 2-((1H-pyrrolo[2,3-b]pyridin-5-yl)oxy)-4-(4-((2-(4-(4-fluorophenyl)thiophen-2-yl)-4,4-dimethylcyclohex-1-en-1-yl)methyl)piperazin-1-yl)-N-((4-((((1r,4r)-4-hydroxy-4-methylcyclohexyl)methyl)amino)-3-nitrophenyl)sulfonyl)benzamide], the IC50 in assay [1] came out at 20.5 nM; in assay [2], 11 nM; in assay [3] it was 290 nM.

In the case of `CC1(C)CCC(CN2CCN(c3ccc(C(=O)NS(=O)(=O)c4ccc(NC[C@H]5COCCO5)c([N+](=O)[O-])c4)c(Oc4cnc5[nH]ccc5c4)c3)CC2)=C(c2cc(-c3ccc(Cl)cc3)cs2)C1` [Example 38, (S)—N-((4-(((1,4-dioxan-2-yl)methyl)amino)-3-nitrophenyl)sulfonyl)-2-((1H-pyrrolo[2,3-b]pyridin-5-yl)oxy)-4-(4-((2-(4-(4-chlorophenyl)thiophen-2-yl)-4,4-dimethylcyclohex-1-en-1-yl)methyl)piperazin-1-yl)benzamide], the values for the IC50 in assay [1], in assay [2] and in assay [3] were 20.2 nM, 28 nM and 1640 nM, respectively.

Consider `CC(C)c1ccccc1-c1csc(C2=C(CN3CCN(c4ccc(C(=O)NS(=O)(=O)c5ccc(NC[C@H]6COCCO6)c([N+](=O)[O-])c5)c(Oc5cnc6[nH]ccc6c5)c4)CC3)CCC(C)(C)C2)c1` [Example 39, (S)—N-((4-(((1,4-dioxan-2-yl)methyl)amino)-3-nitrophenyl)sulfonyl)-2-((1H-pyrrolo[2,3-b]pyridin-5-yl)oxy)-4-(4-((2-(4-(2-isopropylphenyl)thiophen-2-yl)-4,4-dimethylcyclohex-1-en-1-yl)methyl)piperazin-1-yl)benzamide], for which the IC50 came out at 31.6 nM in assay [1], 260 nM in assay [2] and 2310 nM in assay [3].

As to `CC1(C)CCC(CN2CCN(c3ccc(C(=O)NS(=O)(=O)c4ccc(NC[C@H]5COCCO5)c([N+](=O)[O-])c4)c(Oc4cnc5[nH]ccc5c4)c3)CC2)=C(c2cc(-c3ccc(C(F)(F)F)cc3)cs2)C1` [Example 40, (S)—N-((4-(((1,4-dioxan-2-yl)methyl)amino)-3-nitrophenyl)sulfonyl)-2-((1H-pyrrolo[2,3-b]pyridin-5-yl)oxy)-4-(4-((4,4-dimethyl-2-(4-(4-(trifluoromethyl)phenyl)thiophen-2-yl)cyclohex-1-en-1-yl)methyl)piperazin-1-yl)benzamide], the IC50 was 40.2 nM in assay [1], 45 nM in assay [2] and 3550 nM in assay [3].
